The values that follow come from patent publication US8273724B2, “Melanoma antigens and their use in diagnostic and therapeutic methods” (The United States of America, as represented by the …, priority 1994, dated 2012).

Assay [1] has as its system T2 cell lines preincubated with peptide. Nature of the assay: Recognition of modified peptides by natural epitope (M9-2, G9-154, G9-209, G9-280) reactive T-cells, 51Cr release on peptide-pulsed T2 cells (Example 5). The class given is cell-based, human. The procedure, abridged:
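T2 target cells were pulsed with 1 ug/ml peptide for 2 h at 37° C., then washed. CTL recognition was measured by ^51Cr release cytotoxicity.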

Assay [2] relates to T2 cells. Nature of the assay: Induction of peptide specific CTL from PBL, 51Cr release against T2 cells with or without peptide (Example 5). Type of assay: cell-based, human. Conditions: E:T = 3D40:1. Here is the method:
(§1) Induction of peptide specific CTL PBMC were separated from peripheral blood of HLA-A2+ melanoma patients and normal donors by centrifugation on Ficoll-Hypaque gradients and used as fresh or cryopreserved samples. […] Two days later, 12 IU/ml interleukin 2 (IL-2) (Chiron Co., Emeryville, Calif.) were added to the cultures. Lymphocytes were then restimulated weekly as follows: responder cells were harvested, washed once and replated in 24-well plates at a concentration of 2.5×10^5 cells/ml in CM. Autologous PBMC were thawed, washed twice in PBS, resuspended at 5-8×10^6 cells/ml in CM and pulsed with 1 ug/ml peptide in 15-ml conical tubes (5 ml/tube) for 3 hours at 37° C. These PBMC (stimulators) were then irradiated at 3000 rads, washed once in PBS and added to the responder cells at responder:stimulator ratios ranging between 1:3 and 1:10. The next day, 12 IU/ml IL-2 were added to the cultures. The activity of these CTL was tested by cytotoxicity assays after at least 2 rounds (14 days) of peptide stimulation. To generate CTL from TIL cultures, the dissociated tumor suspension were cultured for 1-2 days in 10% FCS RPMI-1640 medium to allow tumor cell adherence. The lymphocytes, recovered from the non-adherent fraction, were used for the induction of peptide specific CTL as described above.
(§2) Assessment of antigen recognition by CTL. ^51Cr release cytotoxic assays were performed to detect the recognition of peptide and melanoma cells by CTL. To analyze peptide recognition, T2 cell lines were preincubated for 2 h at 37° C. with 1 ug/ml peptide, washed and used as target cells in a ^51Cr release cytotoxic assay. The melanoma lines 624mel was established in our laboratory (See Example 1).

In assay [3] the target is T1, HLA-A2.1 (Homo sapiens, UniProt P04439, D140Y/D185E/D98H/E176V/E277Q/G131W/G231S/I119V/I121R/I166T/I218V/L300P/L318F/N151K/N90K/P208A/P217A/Q86G/Q94H/R138H/R169H/T345S). Nature of the assay: HLA-A2.1 binding assay of modified peptides, inhibition of radiolabeled Hbc 18-27 (Example 5).
The subject of assay [4] is 624mel melanoma cell line. Put plainly: Induction of peptide specific CTL from PBL, 51Cr release against melanoma cells (Example 5). Type of assay: cell-based, human. Conditions: for recognition and lysis of original epitopes and melanoma tumor cells (624 mel) by PBL stimulated with the peptide, compared with natural epitopes: PBL stimulated with autologous PBMC pulsed with peptide; for % specific lysis by PBL stimulated with the peptide: target 624mel, E:T = 3D40:1. Here is the method: as §1, §2

The target in assay [5] is T1, HLA-A2.1. Nature of the assay: Peptide binding assay to HLA-A2.1, competition with radiolabeled HBc18-27 (Example 4).
Assay [6] deals with HLA-A2.1+ T2 cell line. Nature of the assay: 51Cr release cytotoxicity assay: TIL lysis of T2 cells preincubated with synthetic MART-1 peptides (Example 2). The class given is cell-based, human.
Setting [7] is: target T2 + G9-154-2I, after 4 stimulations.
Setting [8] is: target T2 + G9-154, after 4 stimulations.
Setting [9] is: target T2, after 4 stimulations (Table 18).
Where [10] appears, read: after 4 stimulations (Table 18).

Where a SMILES comes first, the peptide text is derived from it.

Consider `CC[C@H](C)[C@H](NC(=O)[C@@H](N)CCCCN)C(=O)N[C@@H](Cc1c[nH]c2ccccc12)C(=O)NCC(=O)N[C@@H](CCC(N)=O)C(=O)N[C@@H](Cc1ccc(O)cc1)C(=O)N[C@@H](Cc1c[nH]c2ccccc12)C(=O)N[C@@H](CCC(N)=O)C(=O)N[C@H](C(=O)O)C(C)C` [G9-154-2I] (H-KIWGQYWQV-OH; N-terminus and C-terminus assumed), for which the “Recognition by G9-154 reactive T-cell” value in assay [1] is reported as “+ (+, recognized)”. Besides, the “% specific lysis by PBL stimulated with the peptide” value (“% specific lysis by PBL stimulated” below) came to 38% in assay [2] (setting [7]), 37% in assay [2] (setting [8]), 1% in assay [2] (setting [9]) and 23% in assay [4] (setting [10]). For the same compound, in assay [3] (modified gp100 G9-154 peptides, read-out: Binding affinity to HLA-A2.1), the IC50 was determined as 0.003 µM. The “recognition and lysis of original epitopes and melanoma tumor cells (624 mel) by PBL stimulated with the peptide, compared with natural epitopes” value in assay [4] is “better”.
As to `CC(C)C[C@H](NC(=O)[C@@H](N)Cc1ccccc1)C(=O)N[C@@H](CC(=O)O)C(=O)N[C@@H](CCC(N)=O)C(=O)N[C@H](C(=O)N1CCC[C@H]1C(=O)N[C@@H](Cc1ccccc1)C(=O)N[C@@H](CO)C(=O)N[C@H](C(=O)O)C(C)C)C(C)C` [G9-209-1F2L], the “Recognition by G9-209 reactive T-cell” value in assay [1] is listed as “+ (+, recognized)”. Further, in assay [1], the “recognition by the original melanoma reactive T-cells” value is given as “recognized”. The “% specific lysis by PBL stimulated” value in assay [2] (target T2 + G9-209-1F2L, after 4 stimulations) came out at 86%; in assay [2] (target T2 + G9-209, after 4 stimulations), 85%; in assay [2] (target T2, after 4 stimulations (Table 19)), 0%; in assay [4] (after 4 stimulations (Table 19)) it was 63%. For the same compound, in assay [3], the “binding affinity to HLA-A2.1 compared with the natural epitope” value is “higher binding affinity”. In addition, the “recognition and lysis of original epitopes and melanoma tumor cells (624 mel) by PBL stimulated with the peptide, compared with natural epitopes” value in assay [4] is reported as “better”.
As for `CC[C@H](C)[C@H](N)C(=O)N[C@@H](CCSC)C(=O)N[C@@H](CC(=O)O)C(=O)N[C@@H](CCC(N)=O)C(=O)N[C@H](C(=O)N1CCC[C@H]1C(=O)N[C@@H](Cc1ccccc1)C(=O)N[C@@H](CO)C(=O)N[C@H](C(=O)O)C(C)C)C(C)C` [G9-209-2M], in assay [1], the “Recognition by G9-209 reactive T-cell” value is reported as “+ (+, recognized)” and the “recognition by the original melanoma reactive T-cells” value is recorded as “recognized”. For the same compound, the “binding affinity to HLA-A2.1 compared with the natural epitope” value in assay [3] is “higher binding affinity”.
With `CC(C)C[C@H](NC(=O)[C@@H](N)Cc1ccc(O)cc1)C(=O)N[C@@H](CCC(=O)O)C(=O)N1CCC[C@H]1C(=O)NCC(=O)N1CCC[C@H]1C(=O)N[C@H](C(=O)N[C@H](C(=O)O)[C@@H](C)O)C(C)C` [G9-280-9V] (H-YLEPGPVT-OH; N-terminus and C-terminus assumed), the “recognition by the original melanoma reactive T-cells” value in assay [1] is listed as “recognized”. Also, the “Recognition by G9-280 reactive T-cell” value in assay [1] (51Cr release, T2 cells preincubated with 1 ug/ml peptide) is “+ (+, recognized)”. Besides, the “% specific lysis by PBL stimulated” value was found to be 58% in assay [2] (target T2 + G9-280-9V, after 4 stimulations); 87% in assay [2] (target T2 + G9-280, after 4 stimulations); 0% in assay [2] (target T2, after 4 stimulations (Table 20)); 71% in assay [4] (after 4 stimulations (Table 20)). In assay [3], the “binding affinity to HLA-A2.1 compared with the natural epitope” value was “higher binding affinity”. The “recognition and lysis of original epitopes and melanoma tumor cells (624 mel) by PBL stimulated with the peptide, compared with natural epitopes” value in assay [4] is “better”.
Compound `CC(C)C[C@H](NC(=O)[C@H](CCCNC(=N)N)NC(=O)[C@H](CC(C)C)NC(=O)[C@@H](NC(=O)[C@H](C)NC(=O)[C@@H](NC(=O)CNC(=O)[C@H](CC(=O)O)NC(=O)[C@H](CC(C)C)NC(=O)[C@@H](N)CC(C)C)[C@@H](C)O)[C@@H](C)O)C(=O)O` [G10-4] yielded an IC50 in assay [5] of 0.483 µM.
As to `CC(C)[C@H](NC(=O)[C@H](CCC(N)=O)NC(=O)[C@H](Cc1c[nH]c2ccccc12)NC(=O)[C@H](Cc1ccc(O)cc1)NC(=O)[C@H](CCC(N)=O)NC(=O)CNC(=O)[C@H](Cc1c[nH]c2ccccc12)NC(=O)[C@@H](NC(=O)[C@@H](N)CCCCN)[C@@H](C)O)C(=O)O` [G9154], in assay [1], the “Recognition by G9-154 reactive T-cell” value is “+ (+, recognized)”. Moreover, the “% specific lysis by PBL stimulated” value is given as 8% in assay [2] (setting [7]), 14% in assay [2] (setting [8]), 11% in assay [2] (setting [9]) and 5% in assay [4] (setting [10]).
Regarding `CC[C@H](C)[C@H](NC(=O)CNC(=O)[C@H](C)NC(=O)[C@@H](N)Cc1ccccc1)C(=O)NCC(=O)N[C@H](C(=O)N[C@@H](CC(C)C)C(=O)N[C@H](C(=O)N[C@H](C(=O)O)C(C)C)[C@@H](C)O)[C@@H](C)CC` [M9-2-1F], in assay [1], the “Recognition by M9-2 reactive T-cell” value is “+ (+, recognized)” and the “recognition by the original melanoma reactive T-cells” value is on record as “recognized”. The “binding affinity to HLA-A2.1 compared with the natural epitope” value in assay [3] is reported as “higher binding affinity”.
Regarding `CC[C@H](C)[C@H](NC(=O)CNC(=O)[C@H](CC(C)C)NC(=O)[C@H](C)N)C(=O)NCC(=O)N[C@H](C(=O)N[C@@H](CC(C)C)C(=O)N[C@H](C(=O)N[C@H](C(=O)O)C(C)C)[C@@H](C)O)[C@@H](C)CC` [M9-2-2L], in assay [1], the “Recognition by M9-2 reactive T-cell” value is “+ (+, recognized)” and the “recognition by the original melanoma reactive T-cells” value is on record as “recognized”. Besides, the “binding affinity to HLA-A2.1 compared with the natural epitope” value in assay [3] is “higher binding affinity”.
As for `CC[C@H](C)[C@H](NC(=O)CNC(=O)[C@@H](NC(=O)[C@H](Cc1ccc(O)cc1)NC(=O)[C@H](C)NC(=O)[C@H](C)N)[C@@H](C)CC)C(=O)N[C@@H](CC(C)C)C(=O)N[C@H](C(=O)N[C@H](C(=O)O)C(C)C)[C@@H](C)O` [M9-2-3Y], in assay [1], the “Recognition by M9-2 reactive T-cell” value was “+ (+, recognized)” and the “recognition by the original melanoma reactive T-cells” value is reported as “recognized”. Moreover, the “binding affinity to HLA-A2.1 compared with the natural epitope” value in assay [3] is listed as “higher binding affinity”.
For `CC[C@H](C)[C@H](NC(=O)CN)C(=O)NCC(=O)N[C@H](C(=O)N[C@@H](CC(C)C)C(=O)N[C@H](C(=O)N[C@H](C(=O)N[C@H](C(=O)N[C@@H](CC(C)C)C(=O)O)[C@@H](C)CC)C(C)C)[C@@H](C)O)[C@@H](C)CC` [M9-3] (H-GIGILTVIL-OH), the “% specific lysis” value in assay [6] (T2 + peptide 10 ug/ml, effector TIL 660, E:T 40:1, 4 h) is 0%; in assay [6] (T2 + peptide 10 ug/ml, effector TIL 1074, E:T 40:1, 4 h) it was 10%; in assay [6] (T2 + peptide 10 ug/ml, effector TIL 1235, E:T 40:1, 4 h) it was 20%; in assay [6] (T2 + peptide 10 ug/ml, effector TIL clone A42, E:T 20:1, 4 h) it was 18%; in assay [6] (purified peptide 1 ug/ml, TIL 501, E:T 40:1), 5%; in assay [6] (purified peptide 1 ug/ml, TIL 620, E:T 40:1), 25%. Further, the “% specific lysis” value is 0% in assay [6] (purified peptide 1 ug/ml, TIL 660, E:T 40:1); 1% in assay [6] (purified peptide 1 ug/ml, TIL 1074, E:T 40:1); 19% in assay [6] (purified peptide 1 ug/ml, TIL 1088, E:T 40:1); 0% in assay [6] (purified peptide 1 ug/ml, TIL 1128, E:T 40:1); 1% in assay [6] (purified peptide 1 ug/ml, TIL 1143, E:T 40:1); −2% in assay [6] (purified peptide 1 ug/ml, TIL 1200, E:T 40:1). The “% specific lysis” value in assay [6] (purified peptide 1 ug/ml, TIL 1235, E:T 40:1) is recorded as 0%; in assay [6] (purified peptide 1 ug/ml, TIL 1363, E:T 40:1), −2%; in assay [6] (purified peptide 1 ug/ml, clone A42, E:T 20:1), −4%. For the same compound, the “recognition by either A42 or TIL1235” value in assay [6] (purified peptides, titration (FIG. 2)) is “not recognized”.
